According to US11827609B2, “Toll like receptor modulator compounds” (GILEAD SCIENCES, INC., priority 2016, dated 2023):

Columns and labels:
Assay type in all cases: cell-based
TNFα = assay: Cytokine profiling assay in human PBMCs, TNFα detection (MSD); conditions: PBMC; cryopreserved human PBMCs, 24 hours at 37° C., half-maximal effect on normalized percent activation; read-out: TNFa AC50
Excerpt: (§1) Cryopreserved human PBMCs isolated from healthy donors were purchased from StemCell Technologies (Vancouver, Canada). Cell culture medium used was RPMI with L-Glutamine (Mediatech, Manassas, Va.) supplemented with 10% fetal bovine serum (Hyclone, GE Healthcare, Logan, Utah) and Penicillin-Streptomycin (Mediatech). Human TNFα, IL12p40, and IFNα2a 384-well Assay capture plates, standards, buffers and processing reagents were obtained from MesoScale Discovery Technologies (MSD; Rockville, Md.).
(§2) Cryopreserved human PBMCs (1×10e8 cells/ml) were thawed at 37° C. and resuspended in 25 mL warm cell culture medium. The cells were pelleted at 200×g (Beckman Avanti J-E) for 5 min and resuspended in 20 mL of fresh culture media. Cells were counted using a Cellometer (Nexcelcom Bioscience), adjusted to 2×10e6 cells, and incubated for 2 hours in an incubator set at 37° C., 5% CO2 to recover from cryopreservation. Compounds were serially diluted in DMSO at half-log steps to generate a 10-point dose range. Using a Bravo pipette equipped with a 384 well head (Agilent), 0.4 μL of compound was transferred to each well of a 384 well black, clear bottom plate (Greiner Bio-One, Germany) containing 30 μL of cell culture medium. Recovered PBMCs were then dispensed into the assay plate at 50 μL per well (100 k cells/well) using the MicroFlow multichannel dispenser (Biotek). Final DMSO concentration was 0.5%. DMSO was used as the negative control. The plates were incubated for 24 hours at 37° C. PBMCs in the assay plate were pelleted by centrifugation (Beckman Avanti J-E) at 200×g for 5 min.
(§3) Using a Biomek FX 384 well pipetting station (Beckman), conditioned culture medium (CCM) from the assay plate was transferred to MSD capture plates customized for each cytokine. For IFNα and IL12-p40 detection, […], of CCM were added directly to each capture plate, respectively. For TNFα detection, CCM was diluted 1:9 in fresh culture medium, and […], of diluted CCM was used. Serially diluted calibration standards for each cytokine were used to generate standard curves and establish assay linearity. The plates were sealed and incubated overnight at 4° C. in a plate shaker (Titer Plate) set at 200 rpm. On the following day, antibodies specific for each cytokine were diluted 1:50 in MSD Diluent 100 antibody dilution buffer. Diluted antibodies were added to corresponding capture plates at 10 μL/well, and incubated at RT for 1-2 hrs in the shaker. The plates were washed with PBST buffer (3×, 60 μl/well) using a Biotek Multiflow plate washer. MSD Read Buffer diluted to 2× in deionized water and 35 μL/well was added via Biomek FX instrument. The plates were read immediately in a MSD6000 reader. Data were normalized to positive and negative controls in each assay plate. AC50 values represent compound concentrations at half-maximal effect based on normalized percent activation and calculated by non-linear regression using Pipeline Pilot software (Accelrys, San Diego, Calif.).

IFNα = assay: Cytokine profiling assay in human PBMCs, IFNα detection (MSD); conditions: PBMC; cryopreserved human PBMCs, 24 hours at 37° C., half-maximal effect on normalized percent activation; read-out: IFNa AC50
Excerpt: as §1, §2, §3

IL12p40 = assay: Cytokine profiling assay in human PBMCs, IL12p40 detection (MSD); conditions: PBMC; cryopreserved human PBMCs, 24 hours at 37° C., half-maximal effect on normalized percent activation
Excerpt: as §1, §2, §3

Structure (SMILES)	AC50 (TNFα)	AC50 (IFNα)	AC50 (IL12p40)
CCCC[C@](C)(CNC(C)=O)Nc1nc(N)nc2ccccc12 [Example 1, (R)—N-(2-((2-aminoquinazolin-4-yl)amino)-2-methylhexyl)acetamide]	0.063 µM	> 50 µM	0.0522 µM
CCCC[C@](C)(CNC(C)=O)Nc1nc(N)nc2cc(F)ccc12 [Example 2, (R)—N-(2-((2-amino-7-fluoroquinazolin-4-yl)amino)-2-methylhexyl)acetamide]	0.0409 µM	> 50 µM	0.00883 µM
CCCC[C@](C)(CNC(C)=O)Nc1nc(N)nc2cc(F)c(F)cc12 [Example 3, (R)—N-(2-((2-amino-6,7-difluoroquinazolin-4-yl)amino)-2-methylhexyl)acetamide]	0.812 µM	> 50 µM	0.703 µM
CCCC[C@](C)(CNC(C)=O)Nc1nc(N)nc2cnccc12 [Example 4, (R)—N-(2-((2-aminopyrido[3,4-d]pyrimidin-4-yl)amino)-2-methylhexyl)acetamide]	0.11 µM	> 50 µM	0.132 µM
CCCC[C@](C)(CNC(C)=O)Nc1nc(N)nc2ncccc12 [Example 5, (R)—N-(2-((2-aminopyrido[2,3-d]pyrimidin-4-yl)amino)-2-methylhexyl)acetamide]	0.543 µM	> 50 µM	0.364 µM
CCCC[C@](C)(CNC(C)=O)Nc1nc(N)nc2c1CCCC2 [Example 6, (R)—N-(2-((2-amino-5,6,7,8-tetrahydroquinazolin-4-yl)amino)-2-methylhexyl)acetamide]	10.2 µM	> 50 µM	9.58 µM
CCCC[C@](C)(CNC(C)=O)Nc1nc(N)nc2c1CN(C(C)=O)CC2 [Example 7, (R)—N-(2-((6-acetyl-2-amino-5,6,7,8-tetrahydropyrido[4,3-d]pyrimidin-4-yl)amino)-2-methylhexyl)acetamide]	2.5 µM	> 50 µM	2.32 µM
CCCC[C@](C)(CNC(C)=O)Nc1nc(N)nc2c1CCN(C(C)=O)C2 [Example 8, (R)—N-(2-((7-acetyl-2-amino-5,6,7,8-tetrahydropyrido[3,4-d]pyrimidin-4-yl)amino)-2-methylhexyl)acetamide]	4.61 µM	> 50 µM	3.63 µM
CCCC[C@](C)(CNC(C)=O)Nc1nc(N)nc2ccsc12 [Example 9]	1.1 µM	> 50 µM	0.855 µM
CCCC[C@H](CNC(C)=O)Nc1nc(N)nc2ccccc12 [Example 10, (R)—N-(2-((2-aminoquinazolin-4-yl)amino)hexyl)acetamide]	1.67 µM	> 50 µM	1.31 µM
CCCC[C@H](CNC(C)=O)Nc1nc(N)nc2cc(F)ccc12 [Example 11, (R)—N-(2-((2-amino-7-fluoroquinazolin-4-yl)amino)hexyl)acetamide]	0.561 µM	> 50 µM	0.433 µM
CCCC[C@H](CNC(C)=O)Nc1nc(N)nc2cc(F)c(F)cc12 [Example 12, (R)—N-(2-((2-amino-6,7-difluoroquinazolin-4-yl)amino)hexyl)acetamide]	10.2 µM	> 50 µM	12 µM
CCCC[C@H](CNC(C)=O)Nc1nc(N)nc2ccsc12 [Example 13]	9.52 µM	> 50 µM	8.29 µM
CCCC[C@](C)(CNC(C)=O)Nc1nc(N)nc2nccnc12 [Example 14, (R)—N-(2-((2-aminopteridin-4-yl)amino)-2-methylhexyl)acetamide]	1.91 µM	> 50 µM	1.9 µM
